Test results taken from article PMC10065799, “High-throughput profiling of sequence recognition by tyrosine kinases and SH2 domains using bacterial peptide display” (eLife, 2023).
Read-outs that look alike come from different tables or passages of the source.

Assays:
Experiment in all cases: pTyr-Var library bacterial peptide display kinase screen (enrichment scores)
c-Src kinase domain = c-Src kinase domain (Homo sapiens, UniProt P12931); type: biochemical;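 note: log2 fold change in enrichment of variant over reference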
EPHB1 kinase domain = type: biochemical, human; conditions: for Screen (variant relative to reference peptide, measured in the pTyr-Var library screen): sheet "EPHB1", variant seq vs reference seq, bacterial peptide display enrichment; for Screen: sheet EPHB1, effect of the variant peptide relative to its reference peptide in the pTyr-Var library screen (enrichment scores)
c-Abl kinase domain = target: T1, c-Abl kinase domain (Mus musculus, UniProt P00520); type: biochemical;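 note: log2 fold change in enrichment of variant over reference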
T1 sequence (P00520 242-493 limits assumed): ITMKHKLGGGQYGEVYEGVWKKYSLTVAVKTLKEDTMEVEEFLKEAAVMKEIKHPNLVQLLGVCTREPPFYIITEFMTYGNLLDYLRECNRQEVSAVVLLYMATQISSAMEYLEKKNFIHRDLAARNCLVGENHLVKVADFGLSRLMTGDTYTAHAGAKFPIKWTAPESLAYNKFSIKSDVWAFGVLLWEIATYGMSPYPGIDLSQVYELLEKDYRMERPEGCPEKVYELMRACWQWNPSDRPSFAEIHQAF

Fer kinase domain = type: biochemical, mouse; conditions: sheet "Fer"
[1] = sheet "Src", effect of the variant peptide relative to its reference peptide in the pTyr-Var library screen
[2] = fig5-data2, sheet "Abl", Screen for the variant/reference peptide pair, pTyr-Var library
[3] = sheet "Src", variant peptide versus its reference peptide in the pTyr-Var library screen
[4] = variant peptide relative to its reference peptide, pTyr-Var library screen enrichment
[5] = value of the variant peptide against its reference peptide in the pTyr-Var library screen with Fer
[6] = sheet "Abl", effect of variant peptide relative to its reference peptide in pTyr-Var library screen (enrichment)

ACLSLYGGFVE [MVD_Y164_R161L]
Screen (c-Src kinase domain; [1]): -0.5782

HLGNQYVNVMN [SLC3A1_Y461_R456H]
Screen (variant relative to reference peptide, measured in the pTyr-Var library screen) (EPHB1 kinase domain): -0.5071

ADLVQYFMEHH [PTPN11_Y80_E76D_YF]
Screen (c-Abl kinase domain; [2]): 0.02377

PKDSAYVTWEP [TTN_Y20731_S20726P]
Screen (c-Src kinase domain; [3]): 0.3327
Screen (Fer kinase domain; [4]): 0.6125

AMGPVYQAAAL [HYOU1_Y421_A419P]
Screen (c-Src kinase domain; [1]): 0.5389
Screen (Fer kinase domain; [5]): 1.97

VVSLFYGTALF [OR10C1_Y251_M246V]
Screen (c-Src kinase domain; [3]): -0.3109

QRRNVYFFSFL [PTEN_Y176_Y174N_YF]
Screen (Fer kinase domain; [5]): -1.418

FLTQHYDAIPQ [ANG_Y38_K41I]
Screen (Fer kinase domain; [5]): 3.881

SGEKPYKCSVC [ZNF543_Y283_E287V]
Screen (c-Abl kinase domain; [6]): 3.958

CTHDLYMFMRE [FGFR3_Y724_I726F]
Screen (c-Src kinase domain; [1]): 0.09652
Screen (EPHB1 kinase domain): 0.1536

EFSNQYKATIG [RAB7A_Y37_K32E]
Screen (c-Abl kinase domain; [2]): 1.976

LKRCQYVTKKV [ALDOA_Y204_E207K]
Screen (EPHB1 kinase domain): -1.465

IVRSPYEDLED [VHL_Y185_L184P]
Screen (c-Abl kinase domain; [6]): 0.8994

GENTVYAQVFN [LY9_Y603_M602V]
Screen (c-Src kinase domain; [1]): 1.086
Screen (Fer kinase domain; [5]): 0.3094
Screen (EPHB1 kinase domain): 0.06415

HITQVYGFFDE [PPP2CA_Y127_Q122H_YF]
Screen (c-Src kinase domain; [3]): 0.5425

VKMLPYTEVTR [GDI1_Y93_L92P]
Screen (EPHB1 kinase domain): -2.754

HGAKVYIDPFT [EPHB4_Y590_T587A]
Screen (c-Abl kinase domain; [2]): 1.249

LVLIKYLPEWT [PSEN1_Y240_F237L]
Screen (c-Abl kinase domain; [2]): 1.753

LLSVAYKNVVR [YWHAZ_Y48_G53R]
Screen (c-Abl kinase domain; [6]): 1.295

AKAFIYASHIV [ZNF573_Y229_G224A]
Screen (c-Src kinase domain; sheet "Src", effect of the variant peptide against its reference peptide, seen in the pTyr-Var library screen): 0.3183
Screen (Fer kinase domain; [4]): 0.4356

ADRNHYRRFRR [YBX1_Y145_P149R_YF]
Screen (c-Abl kinase domain; [6]): -2.647

DFPGIYSGFDD [POLR1C_Y33_N32I_YF]
Screen (c-Src kinase domain; [3]): 3.694

IGVDSYSVCKR [RPS6KA3_Y433_G431D]
Screen (c-Abl kinase domain; [2]): 0.006002

GFEEAYSVSKK [PAFAH1B1_Y28_F31S_YF]
Screen (c-Src kinase domain; [3]): -2.622

KRAAIYNPVIF [RHO_Y301_S297R_YF]
Screen (c-Src kinase domain; [3]): -1.114
Screen (Fer kinase domain; [4]): -0.6585

FSQQTYFPVSN [ABCD1_Y180_R182P_YF]
Screen (c-Src kinase domain): 1.076

TTPFNYSFIFK [RAB14_Y8_A4T_YF]
Screen (EPHB1 kinase domain): 0.03762

LQKNIYSEELR [LMNA_Y211_F206L]
Screen (c-Src kinase domain; [1]): -1.475
Screen (EPHB1 kinase domain): 0.6923

IATTIYSGDKI [UGGT2_Y823_A821T]
Screen (c-Src kinase domain; [3]): -1.846

VQVAFYTVMMN [SPATA17_Y84_M86V_YF]
Screen (Fer kinase domain; [4]): -1.379

KKHIPYRQHKS [CSNK1G2_Y206_E208Q]
Screen (Fer kinase domain; [5]): 0.3167
Screen (EPHB1 kinase domain): 0.2176

MNKNAYHNVTT [ST3GAL6_Y306_A311T]
Screen (c-Abl kinase domain; [6]): -0.8996

RILENYGADID [DNAH5_Y596_L591R]
Screen (c-Abl kinase domain; [2]): -0.1652

DHPSEYAARQL [ANXA13_Y90_R86H]
Screen (c-Abl kinase domain; [2]): 0.8208

FQKNVYSEELR [LMNA_Y211_I210V]
Screen (c-Src kinase domain; [1]): -1.452

MKKMHYVDPDR [ST3GAL5_Y99_H104R]
Screen (c-Abl kinase domain; [6]): -0.8054

LLTKVYVVEGS [ZMPSTE24_Y253_P248L]
Screen (c-Abl kinase domain; [6]): -5.536

QAIDEYEKWLE [MAP9_Y603_N601D]
Screen (EPHB1 kinase domain): -0.2835

SKHHLYSDLQT [PTCHD1_Y84_R82H]
Screen (Fer kinase domain; [5]): 1.431

QDRTFYERVRT [SPEN_Y633_S635R_YF]
Screen (Fer kinase domain; [4]): -1.346

MLEAPYVDRNS [F10_Y384_V382A]
Screen (c-Abl kinase domain; [2]): 1.1

MFNPCYGLFEF [NEDD4L_Y680_Y679C_YF]
Screen (c-Src kinase domain; [3]): -0.1736
Screen (Fer kinase domain; [5]): -0.1579

AGIVVYNIIGW [MYH7_Y588_D587V]
Screen (c-Src kinase domain; [3]): 2.236

RSSGSYGGGGQ [HNRNPA1_Y341_P340S]
Screen (EPHB1 kinase domain): 0.1057

VDEVLYEDSSA [MTHFS_Y197_T202A]
Screen (Fer kinase domain; [5]): -0.2341

FRQNGYIPGSN [PCDHGB2_Y895_V894G_YF]
Screen (c-Abl kinase domain; [2]): -0.7593

ELQGTYTSLQQ [KIF3C_Y574_R571Q]
Screen (c-Src kinase domain; [1]): 1.278

TQPSPYAVFLF [RPGRIP1_Y823_R827L_YF]
Screen (c-Src kinase domain; [3]): -0.4188
Screen (Fer kinase domain; [4]): -0.3535
Screen (EPHB1 kinase domain): -0.3084

PAIFTYDEFKK [COL8A2_Y648_T645I_YF]
Screen (c-Src kinase domain; [1]): 0.8342
Screen (Fer kinase domain; [5]): -2.501

AATTAYSKPKQ [MAP3K7_Y405_R410Q]
Screen (c-Abl kinase domain; [2]): -0.9283

ICGVSYDEFRF [CFTR_Y512_F508C_YF]
Screen (c-Src kinase domain; [1]): -0.6525
Screen (Fer kinase domain; [5]): -0.3864

SSTAMYSAAGR [PSMB1_Y8_P11A]
Screen (c-Abl kinase domain; [2]): -0.5664

TVHPGYGFLSE [PCCA_Y143_A138T]
Screen (c-Abl kinase domain; [2]): 1.846

SGSFRYGSSFE [SELE_Y390_C394F]
Screen (c-Abl kinase domain; [6]): -0.02524

GFGGGYGGVLT [KRT19_Y65_A60G_YF]
Screen (c-Abl kinase domain; [2]): -0.6696

INITIYGKTFH [EFHC1_Y177_R182H]
Screen (c-Abl kinase domain; [2]): 2.247

AQMAMYFWEMS [TRPM4_Y577_G582S]
Screen (c-Src kinase domain; [3]): -0.06271

QMIETYFDFRV [NSMF_Y506_L511V]
Screen (c-Src kinase domain; [3]): -0.8869
Screen (EPHB1 kinase domain): -0.6862

FKEVVYQAMEE [TACC3_Y684_E680K]
Screen (c-Src kinase domain; [3]): -0.2069

KDQGIYEDFVE [MYL6_Y86_T85I_YF]
Screen (c-Src kinase domain; [3]): 1.232
Screen (Fer kinase domain; [5]): 1.02

PVGVLYEVKVF [PTS_Y128_K129E_YF]
Screen (Fer kinase domain; [4]): 1.639
Screen (EPHB1 kinase domain): 0.4109

FRAVKYLQMVG [AVPR2_Y117_C112Y_YF]
Screen (c-Abl kinase domain; [2]): 1.48

ISNATYKQIGL [FLT1_Y199_E201Q]
Screen (c-Abl kinase domain; [2]): -0.6358

VVKTVYSLQPS [KNSTRN_Y87_P92S]
Screen (c-Src kinase domain; [1]): -0.2694

LREKVYVSLEA [RXRA_Y397_A398V]
Screen (c-Src kinase domain; [3]): -2.342

SEKISYVFMKR [SSX7_Y48_L43S_YF]
Screen (variant relative to reference peptide, measured in the pTyr-Var library screen) (EPHB1 kinase domain): -1.247

DLQDEYDFKRK [STAT1_Y170_C174R]
Screen (c-Abl kinase domain; [6]): -1.312

RDLHTYIMPAH [PNMT_Y256_R254H]
Screen (EPHB1 kinase domain): -2.793

TDTQLYGRFGS [ITGA2B_Y384_G380D]
Screen (c-Src kinase domain; [1]): -0.04787

RKLVDYDSAQH [BIN1_Y150_R154Q]
Screen (c-Abl kinase domain; [2]): -0.7012

LLASGYDSPIN [ABLIM1_Y638_R637G]
Screen (EPHB1 kinase domain): -0.7648

HLLRIYFDITD [MMP27_Y307_W304L_YF]
Screen (EPHB1 kinase domain): 0.4409

CSRCFYQLTKL [AR_Y858_R856C]
Screen (Fer kinase domain; [5]): 1.959

PQAVTYAEVKH [LILRB4_Y360_K362E]
Screen (c-Src kinase domain; [1]): 2.83
Screen (EPHB1 kinase domain): 2.401

KVPAIYGVGTR [CPS1_Y162_D165G]
Screen (c-Src kinase domain; [1]): 1.669

AALSAYAPQRP [PTPRN2_Y249_A251P]
Screen (c-Abl kinase domain; [2]): -0.5816

DPLLTYQFPPK [LMNA_Y481_R482Q]
Screen (c-Src kinase domain; [1]): 1.304

VFGVSYDEFRF [CFTR_Y512_I507V_YF]
Screen (c-Src kinase domain; [1]): 0.2836
Screen (Fer kinase domain; [5]): 0.375

FRDALYKSMVD [PHEX_Y250_F252S_YF]
Screen (c-Abl kinase domain; [2]): 1.216

ETEMLYGSARR [PRC1_Y464_P468R]
Screen (c-Src kinase domain; [3]): -0.8951
Screen (Fer kinase domain; [5]): -2.34

DENWFYTQAAS [RPS19_Y54_R56Q]
Screen (c-Abl kinase domain; [2]): 0.05995

QRASDYFSQQM [GBP6_Y333_A331S_YF]
Screen (EPHB1 kinase domain): 1.684

SSFDTYHLSRE [KIR3DL2_Y253_I252T_YF]
Screen (c-Src kinase domain; [1]): -1.121

NAGAFYVLSTL [FLVCR2_Y325_A326V]
Screen (Fer kinase domain; [5]): -2.63

TRDVNYGWIIH [MT-CYB_Y75_R80H]
Screen (Fer kinase domain; [5]): 3.39

GSSKIYFLHAD [TLR5_Y108_P112A]
Screen (c-Src kinase domain; [3]): -1.042

SSSNPYSTVTV [ACTN2_Y599_M604V]
Screen (c-Src kinase domain; [1]): -0.5875
Screen (Fer kinase domain; [5]): -0.1641

GFFDLYGGEKF [PTPN11_Y66_D61G_YF]
Screen (c-Src kinase domain; [3]): -0.05122

KGSLPYSLILD [PKD1L2_Y406_N407S]
Screen (c-Src kinase domain; [3]): 1.59

QTEAPYRFIFM [PTPN11_Y511_Q510P_YF]
Screen (Fer kinase domain; [5]): 2.526
